Series [1] concerns S. faecalis (strain 9, Table 2). Put plainly: mouse protection assay, i.p. infection with S. faecalis, single s.c. dose. The format is in vivo. The following applies: mice infected with 3.17 LD50's, dosed once subcutaneously one hour after infection. The protocol:
(§1) The in vivo activity of the CWI-785 complex and its components and hydrolysis products was confirmed by administering selected CWI-785 antibiotics to mice infected with various gram-positive pathogens. In one representative assay, in which mice infected intraperitoneally with 46.8 LD ₅₀ʹs of S. aureus (strain 1, Tables 1 and 2) were dosed once, subcutaneously one hour after infection, the following ED₅₀ʹs (mg/kg) (the ED₅₀ gives the amount of antibiotic necessary for 50% survival) were observed: CWI-785B: 2.4, CWI-785C: 3.1, CWI-785: 3.8, HPB3: 0.9, vancomycin: 0.7. In a second representative assay carried out as above except that mice were infected with 3.17 LD₅₀ʹs of S. faecalis (strain 9, Table 2), the following ED₅₀ʹs were observed: HPB3 hydrochloride: 1.6, HPB4 hydrochloride: 1.6, vancomycin: 2.2, teicoplanin: 1.3.

The subject of series [2] is S. aureus (strain 1, Tables 1 and 2). Kind of series: mouse protection assay, i.p. infection with S. aureus, single s.c. dose. The format is in vivo. The following applies: mice infected intraperitoneally with 46.8 LD50's, dosed once subcutaneously one hour after infection, 50% survival. The protocol: as §1
Series [3] in a line: physchem. The format is physicochemical. The text has this: The invention includes within its scope pharmaceutical compositions containing at least one of the above-mentioned antibiotic compounds and a pharmaceutically acceptable carrier. The compositions may also contain other active antibacterial agents. The compositions may be made up in any pharmaceutical form appropriate for the route of administration in question. Such compositions are exemplified by solid compositions for oral administration, such as tablets, capsules, pills, powders and granules; liquid compositions for oral administration such as solutions, suspensions, syrups and elixirs; preparations for parenteral administration such as sterile solutions, suspensions or emulsions; and preparations for topical administration such as gels, creams, ointments or salves. […] In 40% prophylene glycol in water (V/V), the solubility of HPB4 free base is greater than about 200 mg/ml. […] The solubility of HPB4·K is about 300 mg/ml. The solubility of HPB4·2HCl is about 600 mg/ml.
The solubility of the potassium salt is about 300 mg/ml in water.

The nature of series [4]: pH of aqueous solution. Type of series: physicochemical. Particulars: 100 mg/ml aqueous solution.

≈ marks a conversion by molar mass, not a printed value. Where two headings read alike, the source gives them in different places. Some results are limits rather than exact numbers.

By solubility is commonly meant the dissolved amount per volume that the medium holds.

With `CNC(C(=O)NC1C(=O)NC(CC[S+](C)[O-])C(=O)NC2C(=O)NC3C(=O)NC(C(=O)NC(C(=O)O)c4cc(O)cc(O)c4-c4cc3ccc4O)C(OC3CC(N)C(O)C(C)O3)c3ccc(c(Cl)c3)Oc3cc2cc(c3O)Oc2ccc(cc2)C1O)c1ccc(O)cc1.Cl` (centres unmarked) [HPB3 hydrochloride], the ED₅₀ in series [1] was determined as 1.6 mg/kg.

Compound `CNC(C(=O)NC1C(=O)NC(CC[S+](C)[O-])C(=O)NC2C(=O)NC3C(=O)NC(C(=O)NC(C(=O)O)c4cc(O)cc(O)c4-c4cc3ccc4O)C(OC3CC(N)C(O)C(C)O3)c3ccc(c(Cl)c3)Oc3cc2cc(c3O)Oc2ccc(cc2)C1O)c1ccc(O)cc1` (centres unmarked) [HPB3] returned an ED₅₀ in series [2] of 0.9 mg/kg.

For the compound `CNC(C(=O)NC1C(=O)NC(CCSC)C(=O)NC2C(=O)NC3C(=O)NC(C(=O)NC(C(=O)O)c4cc(O)cc(O)c4-c4cc3ccc4O)C(OC3CC(N)C(O)C(C)O3)c3ccc(c(Cl)c3)Oc3cc2cc(c3O)Oc2ccc(cc2)C1O)c1ccc(O)cc1.Cl` (centres unmarked) [HPB4 hydrochloride], the ED₅₀ in series [1] turned out to be 1.6 mg/kg.

Regarding `CNC(C(=O)NC1C(=O)NC(CCSC)C(=O)NC2C(=O)NC3C(=O)NC(C(=O)NC(C(=O)O)c4cc(O)cc(O)c4-c4cc3ccc4O)C(O[C@H]3C[C@@H](N)[C@@H](O)[C@H](C)O3)c3ccc(c(Cl)c3)Oc3cc2cc(c3O)Oc2ccc(cc2)C1O)c1ccc(O)cc1` (some centres unmarked) [HPB4], the solubility in series [3] (40% peg-400 in water, organic solvent or mixture, solubility) is approximately 250 mg/mL (≈ 194 mM); in series [3] (40% propylene glycol in water, organic solvent or mixture, solubility), more than 200 mg/mL.

In the case of `CNC(C(=O)NC1C(=O)NC(CCSC)C(=O)NC2C(=O)NC3C(=O)NC(C(=O)NC(C(=O)O)c4cc(O)cc(O)c4-c4cc3ccc4O)C(O[C@H]3C[C@@H](N)[C@@H](O)[C@H](C)O3)c3ccc(c(Cl)c3)Oc3cc2cc(c3O)Oc2ccc(cc2)C1O)c1ccc(O)cc1` (some centres unmarked) [HPB4·2HCl], the solubility entry in series [3] is given as “about 600 mg/ml”.

With `CNC(C(=O)NC1C(=O)NC(CCSC)C(=O)NC2C(=O)NC3C(=O)NC(C(=O)NC(C(=O)O)c4cc(O)cc(O)c4-c4cc3ccc4O)C(O[C@H]3C[C@@H](N)[C@@H](O)[C@H](C)O3)c3ccc(c(Cl)c3)Oc3cc2cc(c3O)Oc2ccc(cc2)C1O)c1ccc(O)cc1` (some centres unmarked) [HPB4·K], the solubility in series [3] (solubility) was approximately 300 mg/mL (≈ 232 mM); in series [3] (water, solubility) it was approximately 300 mg/mL (≈ 232 mM). In series [4], this compound returned a pH of 9.29.

Consider `CN[C@H](CC(C)C)C(=O)N[C@H]1C(=O)N[C@@H](CC(N)=O)C(=O)N[C@H]2C(=O)N[C@H]3C(=O)N[C@H](C(=O)N[C@H](C(=O)O)c4cc(O)cc(O)c4-c4cc3ccc4O)[C@H](O)c3ccc(c(Cl)c3)Oc3cc2cc(c3O[C@@H]2O[C@H](CO)[C@@H](O)[C@H](O)[C@H]2O[C@H]2C[C@](C)(N)[C@H](O)[C@H](C)O2)Oc2ccc(cc2Cl)[C@H]1O` [vancomycin, reference compound], for which the ED50 in series [2] (Staphylococcus aureus, sc, 1 h, read-out: ED₅₀) was 0.7 mg/kg; in series [1] (Enterococcus faecalis, sc, 1 h, read-out: ED₅₀), 2.2 mg/kg.

(Values after patent EP0255299A2, “Glycopeptide antibiotics” (SMITHKLINE BECKMAN CORPORATION, priority 1986, dated 1988).)
